Measurements from publication PMC10289903 (Investigational New Drugs, 2023).
Like-named read-outs stand apart in the source and are kept apart here.

System: patients with locally advanced or metastatic solid tumors
Source text: This was a Phase Ib, multicenter, open-label, dose-finding clinical trial (NCT02610075). […] Three types of treatment schedules were investigated: cohorts bid 1, bid 2, qd 1.1, qd 2.1 and qd 3.1 received bid or qd treatment on a 5/9 schedule (5 days on treatment, followed by 9 days off) on a 14-day cycle. Cohorts qd 1.2, qd 2.2, and qd 3.2 received treatment on a 5/2 schedule (5 days on followed by 2 days off for 2 of 3 weeks) in a 21-day cycle. Cohorts qd 2.3 and qd 3.3 received treatment on a weekly 5/2 schedule in a 21-day cycle (Table 1). The highest dose level(s) at which less than one-third of evaluable patients (none of 3 patients or 1 of 6 patients) experienced a dose-limiting toxicity (DLT) was declared the MTD.
The per protocol analysis set was defined as a subset of the full analysis set, excluding subjects having an important protocol deviation, to be used for analyses of efficacy endpoints if appropriate.

SMILES: C=CCn1c(=O)c2cnc(Nc3ccc(N4CCN(C)CC4)cc3)nc2n1-c1cccc(C(C)(C)O)n1 [adavosertib, Adavosertib]
- Dizziness (treatment-emergent AE) (qd 1.1: 200 mg qd 5/9 (n=5)): 1 (20.0) n (%)
- Dyspepsia (treatment-emergent AE) (qd 1.1: 200 mg qd 5/9 (n=5)): 1 (20.0) n (%)
- Dyspepsia (treatment-related AE) (qd 1.1: 200 mg qd 5/9 (n=5)): 0 n (%)
- Dyspnea (treatment-emergent AE) (qd 1.1: 200 mg qd 5/9 (n=5)): 0 n (%)
- Edema peripheral (treatment-emergent AE) (qd 1.1: 200 mg qd 5/9 (n=5)): 0 n (%)
- Fall (treatment-emergent AE) (qd 1.1: 200 mg qd 5/9 (n=5)): 0 n (%)
- Fatigue (treatment-emergent AE) (qd 1.1: 200 mg qd 5/9 (n=5)): 2 (40.0) n (%)
- Fatigue (treatment-related AE) (qd 1.1: 200 mg qd 5/9 (n=5)): 1 (20.0) n (%)
- Headache (treatment-emergent AE) (qd 1.1: 200 mg qd 5/9 (n=5)): 1 (20.0) n (%)
- Hypokalemia (treatment-emergent AE) (qd 1.1: 200 mg qd 5/9 (n=5)): 0 n (%)
- Insomnia (treatment-emergent AE) (qd 1.1: 200 mg qd 5/9 (n=5)): 0 n (%)
- Muscle spasms (treatment-emergent AE) (qd 1.1: 200 mg qd 5/9 (n=5)): 0 n (%)
- Myalgia (treatment-emergent AE) (qd 1.1: 200 mg qd 5/9 (n=5)): 1 (20.0) n (%)
- Myalgia (treatment-related AE) (qd 1.1: 200 mg qd 5/9 (n=5)): 1 (20.0) n (%)
- Nausea (treatment-emergent AE) (qd 1.1: 200 mg qd 5/9 (n=5)): 1 (20.0) n (%)
- Nausea (treatment-related AE) (qd 1.1: 200 mg qd 5/9 (n=5)): 1 (20.0) n (%)
- Neutropenia (treatment-emergent AE) (qd 1.1: 200 mg qd 5/9 (n=5)): 1 (20.0) n (%)
- Neutropenia (treatment-related AE) (qd 1.1: 200 mg qd 5/9 (n=5)): 1 (20.0) n (%)
- Pneumonia (treatment-emergent AE) (qd 1.1: 200 mg qd 5/9 (n=5)): 0 n (%)
- Pyrexia (treatment-emergent AE) (qd 1.1: 200 mg qd 5/9 (n=5)): 1 (20.0) n (%)
- Rash (treatment-emergent AE) (qd 1.1: 200 mg qd 5/9 (n=5)): 1 (20.0) n (%)
- Thrombocytopenia (treatment-emergent AE) (qd 1.1: 200 mg qd 5/9 (n=5)): 0 n (%)
- Thrombocytopenia (treatment-related AE) (qd 1.1: 200 mg qd 5/9 (n=5)): 0 n (%)
- Urinary tract infection (treatment-emergent AE) (qd 1.1: 200 mg qd 5/9 (n=5)): 1 (20.0) n (%)
- Vomiting (treatment-emergent AE) (qd 1.1: 200 mg qd 5/9 (n=5)): 0 n (%)
- Vomiting (treatment-related AE) (qd 1.1: 200 mg qd 5/9 (n=5)): 0 n (%)
- Abdominal pain (treatment-emergent AE) (qd 1.2: 200 mg qd 5/2 (n=6)): 2 (33.3) n (%)
- Abdominal pain (treatment-related AE) (qd 1.2: 200 mg qd 5/2 (n=6)): 1 (16.7) n (%)
- Alanine aminotransferase increased (treatment-emergent AE) (qd 1.2: 200 mg qd 5/2 (n=6)): 1 (16.7) n (%)
- Anemia (treatment-emergent AE) (qd 1.2: 200 mg qd 5/2 (n=6)): 2 (33.3) n (%)
- Anemia (treatment-related AE) (qd 1.2: 200 mg qd 5/2 (n=6)): 2 (33.3) n (%)
- Any AE (treatment-emergent) (qd 1.2: 200 mg qd 5/2 (n=6)): 6 (100) n (%)
- Any grade ≥ 3 AE (qd 1.2: 200 mg qd 5/2 (n=6)): 3 (50.0) n (%)
- Any treatment-related AE (qd 1.2: 200 mg qd 5/2 (n=6)): 6 (100) n (%)
- Any treatment-related grade ≥ 3 AE (qd 1.2: 200 mg qd 5/2 (n=6)): 2 (33.3) n (%)
- Asthenia (treatment-emergent AE) (qd 1.2: 200 mg qd 5/2 (n=6)): 0 n (%)
- Asthenia (treatment-related AE) (qd 1.2: 200 mg qd 5/2 (n=6)): 0 n (%)
- Back pain (treatment-emergent AE) (qd 1.2: 200 mg qd 5/2 (n=6)): 1 (16.7) n (%)
- Constipation (treatment-emergent AE) (qd 1.2: 200 mg qd 5/2 (n=6)): 2 (33.3) n (%)
- Constipation (treatment-related AE) (qd 1.2: 200 mg qd 5/2 (n=6)): 1 (16.7) n (%)
- Cough (treatment-emergent AE) (qd 1.2: 200 mg qd 5/2 (n=6)): 1 (16.7) n (%)
- Decreased appetite (treatment-emergent AE) (qd 1.2: 200 mg qd 5/2 (n=6)): 1 (16.7) n (%)
- Decreased appetite (treatment-related AE) (qd 1.2: 200 mg qd 5/2 (n=6)): 1 (16.7) n (%)
- Dehydration (treatment-emergent AE) (qd 1.2: 200 mg qd 5/2 (n=6)): 2 (33.3) n (%)
- Dehydration (treatment-related AE) (qd 1.2: 200 mg qd 5/2 (n=6)): 1 (16.7) n (%)
- Diarrhea (treatment-emergent AE) (qd 1.2: 200 mg qd 5/2 (n=6)): 3 (50.0) n (%)
- Diarrhea (treatment-related AE) (qd 1.2: 200 mg qd 5/2 (n=6)): 2 (33.3) n (%)
- Dizziness (treatment-emergent AE) (qd 1.2: 200 mg qd 5/2 (n=6)): 2 (33.3) n (%)
- Dyspepsia (treatment-emergent AE) (qd 1.2: 200 mg qd 5/2 (n=6)): 1 (16.7) n (%)
- Dyspepsia (treatment-related AE) (qd 1.2: 200 mg qd 5/2 (n=6)): 1 (16.7) n (%)
- Dyspnea (treatment-emergent AE) (qd 1.2: 200 mg qd 5/2 (n=6)): 1 (16.7) n (%)
- Edema peripheral (treatment-emergent AE) (qd 1.2: 200 mg qd 5/2 (n=6)): 3 (50.0) n (%)
- Fall (treatment-emergent AE) (qd 1.2: 200 mg qd 5/2 (n=6)): 1 (16.7) n (%)
- Fatigue (treatment-emergent AE) (qd 1.2: 200 mg qd 5/2 (n=6)): 1 (16.7) n (%)
- Fatigue (treatment-related AE) (qd 1.2: 200 mg qd 5/2 (n=6)): 1 (16.7) n (%)
- Headache (treatment-emergent AE) (qd 1.2: 200 mg qd 5/2 (n=6)): 2 (33.3) n (%)
- Hypokalemia (treatment-emergent AE) (qd 1.2: 200 mg qd 5/2 (n=6)): 0 n (%)
- Insomnia (treatment-emergent AE) (qd 1.2: 200 mg qd 5/2 (n=6)): 1 (16.7) n (%)
- Muscle spasms (treatment-emergent AE) (qd 1.2: 200 mg qd 5/2 (n=6)): 1 (16.7) n (%)
- Myalgia (treatment-emergent AE) (qd 1.2: 200 mg qd 5/2 (n=6)): 3 (50.0) n (%)
- Myalgia (treatment-related AE) (qd 1.2: 200 mg qd 5/2 (n=6)): 3 (50.0) n (%)
- Nausea (treatment-emergent AE) (qd 1.2: 200 mg qd 5/2 (n=6)): 4 (66.7) n (%)
- Nausea (treatment-related AE) (qd 1.2: 200 mg qd 5/2 (n=6)): 4 (66.7) n (%)
- Neutropenia (treatment-emergent AE) (qd 1.2: 200 mg qd 5/2 (n=6)): 1 (16.7) n (%)
- Neutropenia (treatment-related AE) (qd 1.2: 200 mg qd 5/2 (n=6)): 0 n (%)
- Pneumonia (treatment-emergent AE) (qd 1.2: 200 mg qd 5/2 (n=6)): 0 n (%)
- Pyrexia (treatment-emergent AE) (qd 1.2: 200 mg qd 5/2 (n=6)): 1 (16.7) n (%)
- Rash (treatment-emergent AE) (qd 1.2: 200 mg qd 5/2 (n=6)): 0 n (%)
- Thrombocytopenia (treatment-emergent AE) (qd 1.2: 200 mg qd 5/2 (n=6)): 0 n (%)
- Thrombocytopenia (treatment-related AE) (qd 1.2: 200 mg qd 5/2 (n=6)): 0 n (%)
- Urinary tract infection (treatment-emergent AE) (qd 1.2: 200 mg qd 5/2 (n=6)): 1 (16.7) n (%)
- Vomiting (treatment-emergent AE) (qd 1.2: 200 mg qd 5/2 (n=6)): 3 (50.0) n (%)
- Vomiting (treatment-related AE) (qd 1.2: 200 mg qd 5/2 (n=6)): 3 (50.0) n (%)
- Abdominal pain (treatment-emergent AE) (qd 2.1: 250 mg qd 5/9 (n=4)): 1 (25.0) n (%)
- Abdominal pain (treatment-related AE) (qd 2.1: 250 mg qd 5/9 (n=4)): 1 (25.0) n (%)
- Alanine aminotransferase increased (treatment-emergent AE) (qd 2.1: 250 mg qd 5/9 (n=4)): 0 n (%)
- Anemia (treatment-emergent AE) (qd 2.1: 250 mg qd 5/9 (n=4)): 1 (25.0) n (%)
- Anemia (treatment-related AE) (qd 2.1: 250 mg qd 5/9 (n=4)): 0 n (%)
- Any AE (treatment-emergent) (qd 2.1: 250 mg qd 5/9 (n=4)): 4 (100) n (%)
- Any grade ≥ 3 AE (qd 2.1: 250 mg qd 5/9 (n=4)): 2 (50.0) n (%)
- Any treatment-related AE (qd 2.1: 250 mg qd 5/9 (n=4)): 2 (50.0) n (%)
- Any treatment-related grade ≥ 3 AE (qd 2.1: 250 mg qd 5/9 (n=4)): 0 n (%)
- Asthenia (treatment-emergent AE) (qd 2.1: 250 mg qd 5/9 (n=4)): 0 n (%)
- Asthenia (treatment-related AE) (qd 2.1: 250 mg qd 5/9 (n=4)): 0 n (%)
- Back pain (treatment-emergent AE) (qd 2.1: 250 mg qd 5/9 (n=4)): 0 n (%)
- Constipation (treatment-emergent AE) (qd 2.1: 250 mg qd 5/9 (n=4)): 0 n (%)
- Constipation (treatment-related AE) (qd 2.1: 250 mg qd 5/9 (n=4)): 0 n (%)
- Cough (treatment-emergent AE) (qd 2.1: 250 mg qd 5/9 (n=4)): 2 (50.0) n (%)
- Decreased appetite (treatment-emergent AE) (qd 2.1: 250 mg qd 5/9 (n=4)): 0 n (%)
- Decreased appetite (treatment-related AE) (qd 2.1: 250 mg qd 5/9 (n=4)): 0 n (%)
- Dehydration (treatment-emergent AE) (qd 2.1: 250 mg qd 5/9 (n=4)): 0 n (%)
- Dehydration (treatment-related AE) (qd 2.1: 250 mg qd 5/9 (n=4)): 0 n (%)
- Diarrhea (treatment-emergent AE) (qd 2.1: 250 mg qd 5/9 (n=4)): 1 (25.0) n (%)
- Diarrhea (treatment-related AE) (qd 2.1: 250 mg qd 5/9 (n=4)): 1 (25.0) n (%)
- Dizziness (treatment-emergent AE) (qd 2.1: 250 mg qd 5/9 (n=4)): 0 n (%)
- Dyspepsia (treatment-emergent AE) (qd 2.1: 250 mg qd 5/9 (n=4)): 0 n (%)
- Dyspepsia (treatment-related AE) (qd 2.1: 250 mg qd 5/9 (n=4)): 0 n (%)
- Dyspnea (treatment-emergent AE) (qd 2.1: 250 mg qd 5/9 (n=4)): 0 n (%)
- Edema peripheral (treatment-emergent AE) (qd 2.1: 250 mg qd 5/9 (n=4)): 1 (25.0) n (%)
- Fall (treatment-emergent AE) (qd 2.1: 250 mg qd 5/9 (n=4)): 0 n (%)
- Fatigue (treatment-emergent AE) (qd 2.1: 250 mg qd 5/9 (n=4)): 0 n (%)
- Fatigue (treatment-related AE) (qd 2.1: 250 mg qd 5/9 (n=4)): 0 n (%)
- Headache (treatment-emergent AE) (qd 2.1: 250 mg qd 5/9 (n=4)): 0 n (%)
- Hypokalemia (treatment-emergent AE) (qd 2.1: 250 mg qd 5/9 (n=4)): 0 n (%)
- Insomnia (treatment-emergent AE) (qd 2.1: 250 mg qd 5/9 (n=4)): 0 n (%)
- Muscle spasms (treatment-emergent AE) (qd 2.1: 250 mg qd 5/9 (n=4)): 0 n (%)
- Myalgia (treatment-emergent AE) (qd 2.1: 250 mg qd 5/9 (n=4)): 0 n (%)
- Myalgia (treatment-related AE) (qd 2.1: 250 mg qd 5/9 (n=4)): 0 n (%)
- Nausea (treatment-emergent AE) (qd 2.1: 250 mg qd 5/9 (n=4)): 0 n (%)
- Nausea (treatment-related AE) (qd 2.1: 250 mg qd 5/9 (n=4)): 0 n (%)
- Neutropenia (treatment-emergent AE) (qd 2.1: 250 mg qd 5/9 (n=4)): 0 n (%)
- Neutropenia (treatment-related AE) (qd 2.1: 250 mg qd 5/9 (n=4)): 0 n (%)
- Pneumonia (treatment-emergent AE) (qd 2.1: 250 mg qd 5/9 (n=4)): 0 n (%)
- Pyrexia (treatment-emergent AE) (qd 2.1: 250 mg qd 5/9 (n=4)): 1 (25.0) n (%)
- Rash (treatment-emergent AE) (qd 2.1: 250 mg qd 5/9 (n=4)): 0 n (%)
- Thrombocytopenia (treatment-emergent AE) (qd 2.1: 250 mg qd 5/9 (n=4)): 0 n (%)
